According to US20070287752A1, “Ophthalmic Compositions Comprising A Branched, Glycerol Compound” (priority 2006, published 2007):

How the values were obtained:
Test in all cases: Preservative/disinfectant system efficacy testing (log reduction)
Format in all cases: cell-based
[1] = system: Candida albicans (ATCC 10231)
Description: (§1) The ophthalmic compositions are evaluated in accordance with specific procedures outlined by the US Food & Drug Administration and the International Organization for Standardization for the testing of microbiocidal efficacy.

[2] = system: Fusarium solani (ATCC 36031)
Description: as §1

[3] = system: Pseudomonas aeruginosa (ATCC 9027)
Description: as §1

[4] = system: Serratia marcescens (ATCC 13880)
Description: as §1

[5] = system: Staphylococcus aureus (ATCC 6538)
Description: as §1

[6] = 1 hr, Table 8A multi-purpose lens care formulation, disinfectant concentrations as in label
[7] = 1 hr, phosphate buffered saline, concentrations as in label (Table 7)
[8] = 4 hr, Table 8A multi-purpose lens care formulation, disinfectant concentrations as in label
[9] = 4 hr, phosphate buffered saline, concentrations as in label (Table 7)
[10] = 1 hr, Table 5A multi-purpose lens care solution, 10% organic soil, disinfectant concentrations as in label
[11] = 1 hr, phosphate buffered saline, 10% organic soil, concentrations as in label (Table 4)
[12] = 4 hr, Table 5A multi-purpose lens care solution, 10% organic soil, disinfectant concentrations as in label
[13] = 4 hr, phosphate buffered saline, 10% organic soil, concentrations as in label (Table 4)

Row | SMILES | log reduction C. albicans [1, 6] | log reduction C. albicans [1, 7] | log reduction C. albicans [1, 8] | log reduction C. albicans [1, 9] | log reduction F. solani [2, 6] | log reduction F. solani [2, 7] | log reduction F. solani [2, 8] | log reduction F. solani [2, 9] | log reduction P. aeruginosa [3, 6] | log reduction P. aeruginosa [3, 7] | log reduction P. aeruginosa [3, 8] | log reduction P. aeruginosa [3, 9] | log reduction S. marcescens [4, 6] | log reduction S. marcescens [4, 7] | log reduction S. marcescens [4, 8] | log reduction S. marcescens [4, 9] | log reduction S. aureus [5, 6] | log reduction S. aureus [5, 7] | log reduction S. aureus [5, 8] | log reduction S. aureus [5, 9] | also measured
1 | CCCCC(CC)CNCC(O)CO (stereo not drawn) [EHAPD, 3-[(2-ethylhexyl)amino]-1,2-propanediol] | 2.4 | >5.0 | 2.6 | >5.0 | 2.4 | 2.3 | 4.8 | 5.2 | 1.2 | 1.4 | 1.3 | 1.4 | 2.7 | 3.3 | 3.2 | 3.8 | 1.2 | 1.4 | 1.2 | 1.4 | –
2 | CCCCC(CC)CNC(=N)NC(=N)NCCCCCCNC(=N)NC(=N)NCC(CC)CCCC (stereo not drawn) [alexidine, reference compound] | 2.0 | 3.2 | 3.0 | 3.8 | 3.1 | 2.3 | 4.2 | 2.3 | 3.5 | 1.6 | 3.9 | 2.3 | 4.1 | 2.0 | >5.2 | 3.5 | 3.3 | 1.4 | 3.8 | 1.4 | log reduction C. albicans [1, 10]: 2.0; log reduction C. albicans [1, 11]: 3.2; log reduction C. albicans [1, 12]: 3.0; log reduction C. albicans [1, 13]: 3.8; log reduction F. solani [2, 10]: 3.1; log reduction F. solani [2, 11]: 2.3; log reduction F. solani [2, 12]: 4.2; log reduction F. solani [2, 13]: 2.3; log reduction P. aeruginosa [3, 10]: 3.5; log reduction P. aeruginosa [3, 11]: 1.6; log reduction P. aeruginosa [3, 12]: 3.9; log reduction P. aeruginosa [3, 13]: 2.3; log reduction S. marcescens [4, 10]: 4.1; log reduction S. marcescens [4, 11]: 2.0; log reduction S. marcescens [4, 12]: >5.2; log reduction S. marcescens [4, 13]: 3.5; log reduction S. aureus [5, 10]: 3.3; log reduction S. aureus [5, 11]: 1.4; log reduction S. aureus [5, 12]: 3.8; log reduction S. aureus [5, 13]: 1.4
